Assay results: ChEMBL document CHEMBL1143894, “Synthetic derivatives of the alpha- and beta-amyrin triterpenes and their antinociceptive properties” (2008)

Assays:
[1] = system: Mus musculus; experiment: Antinociceptive effect in Swiss mouse assessed as inhibition of acetic acid-induced visceral pain at 0.0001 to 30 mg/kg, ip relative to morphine; format: functional; details: dose mg/kg 0.0001-30; route intraperitoneal
[2] = system: Mus musculus; experiment: Antinociceptive effect in sc dosed Swiss mouse assessed as inhibition of acetic acid-induced visceral pain; format: functional; details: read-out: ID50 (the source's name)

| Structure (SMILES) | Inhibition [1] | ED50 [2] |
| --- | --- | --- |
| CC(=O)Oc1ccccc1C(=O)O [ASPIRIN] | 83% | 24 mg/kg |
| CN1CC[C@]23c4c5ccc(O)c4O[C@H]2[C@@H](O)C=C[C@H]3[C@H]1C5 [MORPHINE] |  | 0.67 mg/kg |
